Laboratory results: patent publication US8907103B2, “Glucagon antagonists” (Metabasis Therapeutics, Inc., priority 2008, dated 2014)
pEC50, pIC50: −log10 of the molar value.

target: T1, human glucagon receptor (Homo sapiens, UniProt P47871); test: Human glucagon receptor affinity ([125I]glucagon displacement, membrane preparation); type: binding; conditions: R-isomer; read-out: Hu 1050 (nM) R
T1 construct: host or cells: human liver samples or a recombinant cell line (alternatives)
Protocol: Compounds provided herein are dissolved in a suitable solvent (e.g., dimethlysulfoxide) at a concentration of 10 mM and then diluted in buffer (e.g., 50 mM Hepes, pH 7.4, 5 mM MgCl2, 1 mM CaCl2, and 0.2% BSA) to concentrations ranging from 1 nM to 100 μM. Compounds (20 μL/well) and [^125I]glucagon at the final concentration of 0.125 nM (20 μl/well) (Perkin Elmer) are added to and mixed in wells of a 96-well plate (Costar, Corning) containing 120 μL of buffer. Next, an appropriate aliquot of a membrane preparation containing the human glucagon receptor (isolated from human liver samples or obtained from a recombinant cell line) is added to the wells. The binding mixtures are incubated for 2 hrs at room temperature. In the meantime, a MultiScreen 96-well filter plate (Millipore) is treated with 200 μL of the buffer, which is vacuumed through the filter just before the binding mixtures are transferred to the plate. At the end of incubation, binding mixtures are transferred to the wells of the MultiScreen 96-well filter plate and filtered through by applying vacuum. The plate is washed once with 200 μL per well of the buffer, and the filters are dried and counted using a gamma counter.

T1 sequence (P47871 26-477): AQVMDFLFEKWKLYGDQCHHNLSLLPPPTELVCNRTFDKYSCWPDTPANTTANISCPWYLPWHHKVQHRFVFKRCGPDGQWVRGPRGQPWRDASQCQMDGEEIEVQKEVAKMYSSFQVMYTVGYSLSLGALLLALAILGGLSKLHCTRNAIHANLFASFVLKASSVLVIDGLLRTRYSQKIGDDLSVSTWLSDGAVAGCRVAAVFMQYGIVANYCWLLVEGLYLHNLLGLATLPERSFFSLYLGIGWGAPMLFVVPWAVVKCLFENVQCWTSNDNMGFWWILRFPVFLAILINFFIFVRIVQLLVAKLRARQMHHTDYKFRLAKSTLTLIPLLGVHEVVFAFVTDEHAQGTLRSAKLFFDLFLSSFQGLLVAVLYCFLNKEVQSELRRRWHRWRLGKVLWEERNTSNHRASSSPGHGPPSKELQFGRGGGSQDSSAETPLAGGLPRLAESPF

Structure (SMILES) | IC50 [nM]
Cc1cc(Cl)ccc1-c1ccc(NC(=O)C(Cc2ccc(C(=O)NCCS(=O)(=O)O)cc2)c2ccc(C=CC(C)(C)C)cc2)cc1 (single isomer, unassigned) [drawing 125 R] | 14
Cc1cc(Cl)ccc1-c1ccc(NC(=O)C(Cc2ccc(C(=O)NCCS(=O)(=O)O)cc2)c2ccc(C3=CCC(C(C)(C)C)CC3)cc2)cc1 (single isomer, unassigned) [drawing 127 R] | 6
Cc1cc(Cl)ccc1-c1ccc(NC(=O)C(Cc2ccc(C(=O)NCCS(=O)(=O)O)cc2)c2ccc(C3=CCC(C(C)(C)C)CC3)cc2)cc1 (single isomer, unassigned) [drawing 129 R] | 7
Cc1cccc2oc(-c3ccc(NC(=O)C(Cc4ccc(C(=O)NCCS(=O)(=O)O)cc4)c4ccc(-c5ccc(C(C)(C)C)cc5)cc4)cc3)nc12 (single isomer, unassigned) [drawing 135 R] | 10
Cc1cc(Cl)ccc1-c1ccc(NC(=O)C(Cc2ccc(C(=O)NCCS(=O)(=O)O)cc2)c2ccc(-c3ccc(C(C)(C)C)cc3)cc2)cc1 (stereo not shown) [drawing 131 R] | 11
Cc1cc(Cl)ccc1-c1ccc(NC(=O)C(Cc2ccc(C(=O)NCCS(=O)(=O)O)cc2)c2ccc(C3=CCC(C)(C)CC3)cc2)cc1 (stereo not shown) [drawing 133 R] | 10

same assay, conditions: S-isomer; read-out: Hu 1050 (nM) S

Structure (SMILES) | IC50 [nM]
Cc1cc(Cl)ccc1-c1ccc(NC(=O)C(Cc2ccc(C(=O)NCCS(=O)(=O)O)cc2)c2ccc(C=CC(C)(C)C)cc2)cc1 (single isomer, unassigned) [drawing 125 S] | 61
Cc1cc(Cl)ccc1-c1ccc(NC(=O)C(Cc2ccc(C(=O)NCCS(=O)(=O)O)cc2)c2ccc(C3=CCC(C(C)(C)C)CC3)cc2)cc1 (single isomer, unassigned) [drawing 127 S] | 20
Cc1cc(Cl)ccc1-c1ccc(NC(=O)C(Cc2ccc(C(=O)NCCS(=O)(=O)O)cc2)c2ccc(C3=CCC(C(C)(C)C)CC3)cc2)cc1 (single isomer, unassigned) [drawing 129 S] | 19
Cc1cccc2oc(-c3ccc(NC(=O)C(Cc4ccc(C(=O)NCCS(=O)(=O)O)cc4)c4ccc(-c5ccc(C(C)(C)C)cc5)cc4)cc3)nc12 (single isomer, unassigned) [drawing 135 S] | 49

same assay, conditions: human glucagon receptor binding assay; stereo column says racemic or R-isomer; read-out: Hu IC50

Structure (SMILES) | pIC50
CC12CCC(C=C1c1ccc(C(Cc3ccc(C(=O)NCCS(=O)(=O)O)cc3)C(=O)Nc3ccc(-c4nc5ccccc5o4)cc3)cc1)C2(C)C (racemic) | 7.74
CC(C)(C)c1ccc(-c2ccc(C(Cc3ccc(C(=O)NCCS(=O)(=O)O)cc3)C(=O)Nc3ccc(-c4ccccc4Cl)cc3)cc2)cc1 (racemic) | 7.74
CC(C)(C)c1ccc(-c2ccc(C(Cc3ccc(C(=O)NCCS(=O)(=O)O)cc3)C(=O)Nc3ccc(-c4cc(Cl)cc(Cl)c4)cc3)cc2)cc1 (racemic) | 7.82
Cc1cc(Cl)ccc1-c1ccc(NC(=O)C(Cc2ccc(C(=O)NCCS(=O)(=O)O)cc2)c2cccc(-c3ccc(C(C)(C)C)cc3)c2)cc1 (racemic) | 7.82
Cc1cc(C)c2oc(-c3ccc(NC(=O)C(Cc4ccc(C(=O)NCCS(=O)(=O)O)cc4)c4ccc(-c5ccc(C(C)(C)C)cc5)cc4)cc3)nc2c1 (racemic) | 7.96
CC(C)(C)c1ccc(-c2cccc(C(Cc3ccc(C(=O)NCCS(=O)(=O)O)cc3)C(=O)Nc3ccc(-c4ccc(Cl)cc4Cl)cc3)c2)cc1 (racemic) | 7.82
Cc1cc(Cl)ccc1-c1ccc(NC(=O)C(Cc2ccc(C(=O)NCCS(=O)(=O)O)cc2)c2ccc(-c3ccc(C(C)(C)C)cc3)cc2)c(Cl)c1 (racemic) | 7.72
CC1(C)CC=C(c2ccc(NC(=O)C(Cc3ccc(C(=O)NCCS(=O)(=O)O)cc3)c3ccc(-c4ccc(C(C)(C)C)cc4)cc3)cc2)CC1 (racemic) | 7.74
CC(C)(C)c1ccc(-c2ccc(C(Cc3ccc(C(=O)NCCS(=O)(=O)O)cc3)C(=O)Nc3ccc(-c4cccc(Cl)c4)cc3)cc2)cc1 (racemic) | 7.92
Cc1ccc(-c2ccc(NC(=O)C(Cc3ccc(C(=O)NCCS(=O)(=O)O)cc3)c3ccc(-c4ccc(C(C)(C)C)cc4)cc3)cc2)cc1Cl (racemic) | 8.00
Cc1ccc(-c2ccc(NC(=O)C(Cc3ccc(C(=O)NCCS(=O)(=O)O)cc3)c3ccc(C4=CCC(C)(C)CC4)cc3)c(Cl)c2)cc1Cl (racemic) | 7.80
CC(C)(C)C1CC=C(c2ccc(C(Cc3ccc(C(=O)NCCS(=O)(=O)O)cc3)C(=O)Nc3ccc(-c4nc5ccccc5o4)cc3)cc2)CC1 (racemic) | 8.10
CC(C)(C)C1CCC(c2ccc(C(Cc3ccc(C(=O)NCCS(=O)(=O)O)cc3)C(=O)Nc3ccc(-c4nc5ccccc5o4)cc3)cc2)CC1 (racemic) | 7.74
CC(C)(C)C1CCC(c2ccc(C(Cc3ccc(C(=O)NCCS(=O)(=O)O)cc3)C(=O)Nc3ccc(-c4ccc(C(F)(F)F)cc4Cl)cc3)cc2)CC1 (racemic) | 7.92
O=C(NCCS(=O)(=O)O)c1ccc(CC(C(=O)Nc2ccc(-c3ccc(C(F)(F)F)cc3Cl)cc2)c2ccc(C3=CCCCC3)cc2)cc1 (racemic) | 7.80
Cc1cc(C(F)(F)F)ccc1-c1ccc(NC(=O)C(Cc2ccc(C(=O)NCCS(=O)(=O)O)cc2)c2ccc(C3=CCCCC3)cc2)cc1 (racemic) | 7.80

Structure (SMILES) | pIC50
CC1(C)CC=C(c2ccc(C(Cc3ccc(C(=O)NCCS(=O)(=O)O)cc3)C(=O)Nc3ccc(-c4ccc(C(F)(F)F)cc4Cl)cc3)cc2)CC1 (racemic) | 7.82
Cc1ccc(-c2cc(Cl)c(NC(=O)C(Cc3ccc(C(=O)NCCS(=O)(=O)O)cc3)c3ccc(C=CC(C)(C)C)cc3)cc2C)cc1F (racemic) | 7.70
Cc1cc(Cl)ccc1-c1ccc(NC(=O)C(Cc2ccc(C(=O)NCCS(=O)(=O)O)cc2)c2cccc(C3=CCCCC3)c2)cc1 (racemic) | 7.85
Cc1cc(Cl)ccc1-c1ccc(NC(=O)C(Cc2ccc(C(=O)NCCS(=O)(=O)O)cc2)c2cccc(C3=CCC(C)(C)C=C3)c2)cc1 (racemic) | 7.72
CC1(C)C=CC(c2cccc(C(Cc3ccc(C(=O)NCCS(=O)(=O)O)cc3)C(=O)Nc3ccc(-c4ccc(Cl)cc4Cl)cc3)c2)=CC1 (racemic) | 7.74
CC(C)(C)c1ccc(-c2ccc(C(Cc3ccc(C(=O)NCCS(=O)(=O)O)cc3)C(=O)Nc3ccc(-c4nc5ccccc5o4)cc3)cc2)cc1 (racemic) | 7.92
Cc1cc(NC(=O)C(Cc2ccc(C(=O)NCCS(=O)(=O)O)cc2)c2ccc(-c3ccc(C(C)(C)C)cc3)cc2)ccc1-c1nc2ccccc2o1 (racemic) | 8.10
CC(C)(C)c1ccc(-c2ccc(C(Cc3ccc(C(=O)NCCS(=O)(=O)O)cc3)C(=O)Nc3ccc(C4=CCC(C(C)(C)C)CC4)cc3)cc2)cc1 (racemic) | 7.92
CC(C)(C)c1ccc(-c2ccc(C(Cc3ccc(C(=O)NCCS(=O)(=O)O)cc3)C(=O)Nc3ccc(-c4c(Cl)cccc4Cl)cc3)cc2)cc1 (racemic) | 7.74
Cc1cc(C)c(-c2ccc(NC(=O)C(Cc3ccc(C(=O)NCCS(=O)(=O)O)cc3)c3ccc(C4=CCC(C)(C)CC4)cc3)cc2)c(C)c1 (racemic) | 7.92
CC(C)(C)c1ccc(-c2ccc(C(Cc3ccc(C(=O)NCCS(=O)(=O)O)cc3)C(=O)Nc3ccc(-c4ccc(Cl)c(Cl)c4)cc3)cc2)cc1 (racemic) | 8.00
Cc1ccc(-c2ccc(NC(=O)C(Cc3ccc(C(=O)NCCS(=O)(=O)O)cc3)c3ccc(C4=CCC(C)(C)CC4)cc3)c(Cl)c2)c(C)c1 (racemic) | 7.85
Cc1ccc(Cl)cc1-c1ccc(NC(=O)C(Cc2ccc(C(=O)NCCS(=O)(=O)O)cc2)c2ccc(-c3ccc(C(C)(C)C)cc3)cc2)cc1 (racemic) | 8.00
CC1(C)CC=C(c2ccc(C(Cc3ccc(C(=O)NCCS(=O)(=O)O)cc3)C(=O)Nc3ccc(-c4ccc(C(C)(C)C)cc4)cc3Cl)cc2)CC1 (racemic) | 8.00
CC(C)(C)C1CCC(c2ccc(C(Cc3ccc(C(=O)NCCS(=O)(=O)O)cc3)C(=O)Nc3ccc(-c4ccc(Cl)cc4Cl)cc3)cc2)CC1 (racemic) [drawing 110] | 7.74

system: human hepatocytes; test: Functional antagonism of glucagon-stimulated glucose production in hepatocytes; type: cell-based; conditions: human hepatocyte assay, 1 nM glucagon; read-out: Hu Hepatocyte EC50
Protocol: Primary human, monkey, dog, rat, or mouse hepatocytes are seeded onto collagen-coated 24-well plates in Williams E medium (supplemented with 10% fetal bovine serum) and incubated at 37° C. overnight in M199 medium (supplemented with 15 mM glucose and 10 nM human insulin). The following day cells are washed twice with a glucose-free Kreb-bicarbonate buffer, pH 7.4, containing 0.1% BSA. Cells are then incubated at 37° C. with the aforementioned buffer containing 1 nM glucagon and varying concentrations of a glucagon antagonist (0-100 microM). Control wells without glucagon or antagonist are also included. After 1 hour, an aliquot of the medium is removed and analyzed for glucose content by means of the glucose oxidase method. The background glucose levels observed in the control wells are subtracted from the glucagon and antagonist containing wells. A graph of % glucose concentration vs drug concentration is plotted and an EC50 value for inhibition of glucose production generated using Sigmaplot software (SAS, Cary, N.C.). Alternatively, intracellular cAMP levels are measured using standard kits and EC50 values determined by plotting these levels against drug concentration. Antagonists of the glucagon receptor inhibit glucagon-induced cAMP production.

Structure (SMILES) | pEC50
CC12CCC(C=C1c1ccc(C(Cc3ccc(C(=O)NCCS(=O)(=O)O)cc3)C(=O)Nc3ccc(-c4nc5ccccc5o4)cc3)cc1)C2(C)C (racemic) | 7.57
CC(C)(C)c1ccc(-c2ccc(C(Cc3ccc(C(=O)NCCS(=O)(=O)O)cc3)C(=O)Nc3ccc(-c4ccccc4Cl)cc3)cc2)cc1 (racemic) | 6.39
CC(C)(C)c1ccc(-c2ccc(C(Cc3ccc(C(=O)NCCS(=O)(=O)O)cc3)C(=O)Nc3ccc(-c4cc(Cl)cc(Cl)c4)cc3)cc2)cc1 (racemic) | 6.88
Cc1cc(Cl)ccc1-c1ccc(NC(=O)C(Cc2ccc(C(=O)NCCS(=O)(=O)O)cc2)c2cccc(-c3ccc(C(C)(C)C)cc3)c2)cc1 (racemic) | 6.48
Cc1cc(C)c2oc(-c3ccc(NC(=O)C(Cc4ccc(C(=O)NCCS(=O)(=O)O)cc4)c4ccc(-c5ccc(C(C)(C)C)cc5)cc4)cc3)nc2c1 (racemic) | 6.25
CC(C)(C)c1ccc(-c2cccc(C(Cc3ccc(C(=O)NCCS(=O)(=O)O)cc3)C(=O)Nc3ccc(-c4ccc(Cl)cc4Cl)cc3)c2)cc1 (racemic) | 6.67
CC1(C)CC=C(c2ccc(NC(=O)C(Cc3ccc(C(=O)NCCS(=O)(=O)O)cc3)c3ccc(-c4ccc(C(C)(C)C)cc4)cc3)cc2)CC1 (racemic) | 7.22
CC(C)(C)c1ccc(-c2ccc(C(Cc3ccc(C(=O)NCCS(=O)(=O)O)cc3)C(=O)Nc3ccc(-c4cccc(Cl)c4)cc3)cc2)cc1 (racemic) | 6.18
CC(C)(C)C1CC=C(c2ccc(C(Cc3ccc(C(=O)NCCS(=O)(=O)O)cc3)C(=O)Nc3ccc(-c4nc5ccccc5o4)cc3)cc2)CC1 (racemic) | 6.94
CC(C)(C)C1CCC(c2ccc(C(Cc3ccc(C(=O)NCCS(=O)(=O)O)cc3)C(=O)Nc3ccc(-c4nc5ccccc5o4)cc3)cc2)CC1 (racemic) | 6.79
CC(C)(C)C1CCC(c2ccc(C(Cc3ccc(C(=O)NCCS(=O)(=O)O)cc3)C(=O)Nc3ccc(-c4ccc(C(F)(F)F)cc4Cl)cc3)cc2)CC1 (racemic) | 7.52
Cc1cc(C(F)(F)F)ccc1-c1ccc(NC(=O)C(Cc2ccc(C(=O)NCCS(=O)(=O)O)cc2)c2ccc(C3=CCCCC3)cc2)cc1 (racemic) | 7.11
CC1(C)CC=C(c2ccc(C(Cc3ccc(C(=O)NCCS(=O)(=O)O)cc3)C(=O)Nc3ccc(-c4ccc(C(F)(F)F)cc4Cl)cc3)cc2)CC1 (racemic) | 6.86
Cc1ccc(-c2cc(Cl)c(NC(=O)C(Cc3ccc(C(=O)NCCS(=O)(=O)O)cc3)c3ccc(C=CC(C)(C)C)cc3)cc2C)cc1F (racemic) | 6.84
Cc1cc(Cl)ccc1-c1ccc(NC(=O)C(Cc2ccc(C(=O)NCCS(=O)(=O)O)cc2)c2cccc(C3=CCCCC3)c2)cc1 (racemic) | 7.49
Cc1cc(Cl)ccc1-c1ccc(NC(=O)C(Cc2ccc(C(=O)NCCS(=O)(=O)O)cc2)c2cccc(C3=CCC(C)(C)C=C3)c2)cc1 (racemic) | 6.97
CC1(C)C=CC(c2cccc(C(Cc3ccc(C(=O)NCCS(=O)(=O)O)cc3)C(=O)Nc3ccc(-c4ccc(Cl)cc4Cl)cc3)c2)=CC1 (racemic) | 7.21
CC(C)(C)c1ccc(-c2ccc(C(Cc3ccc(C(=O)NCCS(=O)(=O)O)cc3)C(=O)Nc3ccc(-c4nc5ccccc5o4)cc3)cc2)cc1 (racemic) | 6.62
Cc1cc(NC(=O)C(Cc2ccc(C(=O)NCCS(=O)(=O)O)cc2)c2ccc(-c3ccc(C(C)(C)C)cc3)cc2)ccc1-c1nc2ccccc2o1 (racemic) | 6.78
Cc1ccc(Cl)cc1-c1ccc(NC(=O)C(Cc2ccc(C(=O)NCCS(=O)(=O)O)cc2)c2ccc(-c3ccc(C(C)(C)C)cc3)cc2)cc1 (racemic) | 6.72
